Results taken from patent publication US11447467B2, “Compounds for the degradation of STK4 and treatment of hematologic malignancies” (DANA-FARBER CANCER INSTITUTE, INC., priority 2017, dated 2022).

Assays:
[1] = target: T1, STK4 (Homo sapiens, UniProt Q13043); assay: Western blotting of STK4 in whole cell lysates of MM.1S cells (parental or CRBN-knockout); type: cell-based; conditions: for degradation of STK4 in cereblon-knockout cells (FIG. 8): CRBN-K.O. vs parental MM.1S cells; for downregulation of STK4 over time (FIG. 3B): 10 μM; for downregulation of STK4 in MM.1S cells (FIG. 7): 0.6-20 μM; for downregulation of STK4 in MM.1S cells (FIG. 1): immunoblotting anti-STK4/anti-GAPDH; for degradation of STK4 in the presence of MLN4924 (FIG. 9): compound 10 μM, NEDD8 inhibitor MLN4924 1 μM
T1 construct: endogenous in cells; host or cells: MM.1S and CRBN-knockout MM.1S cells
T1 sequence (Q13043 1-487): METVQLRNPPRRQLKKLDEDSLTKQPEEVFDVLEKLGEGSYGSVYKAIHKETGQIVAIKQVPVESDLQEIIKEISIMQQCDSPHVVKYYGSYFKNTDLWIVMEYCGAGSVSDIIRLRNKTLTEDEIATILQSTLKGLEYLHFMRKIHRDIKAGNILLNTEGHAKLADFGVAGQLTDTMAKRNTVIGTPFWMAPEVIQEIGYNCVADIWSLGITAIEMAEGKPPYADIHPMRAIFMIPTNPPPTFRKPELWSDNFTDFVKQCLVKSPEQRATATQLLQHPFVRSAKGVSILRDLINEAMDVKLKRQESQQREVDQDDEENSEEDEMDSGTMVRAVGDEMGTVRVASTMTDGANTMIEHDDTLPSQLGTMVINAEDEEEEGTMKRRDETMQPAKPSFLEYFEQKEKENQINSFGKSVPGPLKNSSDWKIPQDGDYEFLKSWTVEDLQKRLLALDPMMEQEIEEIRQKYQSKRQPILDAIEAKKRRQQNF
Description: MM.1S, KMS20 and H929 cells are counted, diluted and plated. Cells are then […] with DMSO or different concentration of a compound of the present application for 6 hrs, 24 hrs or 48 hrs. MM cells are then collected and centrifuged at RT and the pellets are re-suspended in lysis buffer. Cell lysates are subjected to sodium dodecyl sulfate-polyacrylamide gel electrophoresis SDS-PAGE, transferred to nitrocellulose membranes, and immunoblotted with different antibodies.
MM.1S and CRBN knockout MM.1S cells were counted, diluted and plated in six-well plates to a final concentration of 500,000 cells/well. Cells were then harvested with DMSO or different concentration of a compound of the present application (4 h-24 h). MM cells were then collected and centrifuged for 5 min, 1300 rpm at RT. The pellets were re-suspended in cell lysis buffer (20 mM Tris-HCl (pH 7.5), 150 mM NaCl, 1 mM Na2EDTA, 1 mM EGTA, 1% Triton, 2.5 mM sodium pyrophosphate, 1 mM beta-glycerophosphate, 1 mM Na3VO4, 1 μg/ml leupeptin. Cell lysates were subjected to sodium dodecyl sulfate-polyacrylamide gel electrophoresis SDS-PAGE, transferred to nitrocellulose membranes, and immunoblotted with different antibodies: MST1 (STK4) (#14946), K48-linkage Specific Polyubiquitin (#8081) and GAPDH (#5174) from Cell Signaling, Beverly, Mass., United States: IKZF1 (AF4984) (from R&D Systems, Mineapolis, Minn., United States). All antibodies were diluted 1:1000, except for GAPDH antibody (1:4,000 dilution).

[2] = test system: MM.1S cells; assay: MTT cell growth assay, MM.1S cells; type: cell-based, human; conditions: 72 h; for MM cell growth inhibition (FIG. 10): 0.2-20 μM; for potency in inhibiting MM cell growth as compared to lenalidomide (FIG. 15): comparator lenalidomide (Len)
Procedure: (§1) Dexamethasone-sensitive MM.1S human MM cell line were kindly provided by Dr. Steven Rosen (Northwestern University, Chicago, Ill., United States). Creblon stable knockout MM.1S cells were established in our laboratory using lentiviral CRBN shRNA system. The cell lines were routinely tested for Mycoplasma, and genotyped with two different methods. Peripheral blood mononuclear cells were obtained from healthy volunteer by Ficoll-Paque centriguation. All MM cell lines and PBMCs were cultured in RPMI-1640 media (EuroClone, Pero, Italy) containing 10% fetal bovine serum (FBS, GIBCO, Life technologies, Carlsbad, Calif., United States), and a mix of penicillin and streptomycin to 1% from EuroClone (ECB3001).
(§2) MM.1S and CRBN-knockout MM.1S cells were counted and diluted to a final concentration of 400,000 cells/mL. The cell were plated in 96-well plates and mixed with an equal volume of culture media containing DMSO or increasing concentration of a compound of the present application diluted in DMSO (the final DMSO concentration is equal between all tested samples), using a STARlet Robot (Hamiltonrobotics, Reno, Nev., United States). Cells with increasing concentration of compound of the present application and DMSO were harvested at different time points (24 hrs to 72 hrs). For assessment of celll growth MTT assay, the 3-[4,5 dimethylthiazol-2-yl]-2,5 diphenyltetrazolium bromide-MTT (Sigma-Aldrich, St. Louis, Mo., Unites States) colorimetric assay was used. At the various time points (24-72 hrs), 10 μL of 5 mg/mL MTT were added to cells. After 4 hrs incubation at 37° C., medium was discarded and 100 μL MTT stop solution (Isopropanol with 1 N HCl) was used to dissolve MTT metabolic products. Absorbance was read at 570/630 nm.

[3] = test system: Peripheral blood mononuclear cells (PBMCs) from healthy volunteer; assay: MTT cell growth assay, peripheral blood mononuclear cells; type: cell-based, human; conditions: PBMCs from healthy volunteer vs MM.1S cells, 48 h
Procedure: as §1
MM.1S and CRBN-knockout MM.1S cells were counted and diluted to a final concentration of 400,000 cells/mL. The cell were plated in 96-well plates and mixed with an equal volume of culture media containing DMSO or increasing concentration of a compound of the present application diluted in DMSO (the final DMSO concentration is equal between all tested samples), using a STARlet Robot (Hamiltonrobotics, Reno, Nev., United States). Cells with increasing concentration of compound of the present application and DMSO were harvested at different time points (24 hrs to 72 hrs). […] Absorbance was read at 570/630 nm.

[4] = test system: MM.1S cells resistant to lenalidomide (Len-R #1); assay: MTT cell growth assay, lenalidomide-resistant MM.1S cells; type: cell-based, human; conditions: Len-R #1 MM.1S cells, 0.2-20 μM, 72 h
[5] = test system: CRBN-knockout MM.1S cells; assay: MTT cell growth assay, CRBN-knockout MM.1S cells; type: cell-based, human; conditions: for cytotoxicity in CRBN-knockout cells (FIG. 11): 0.2-20 μM, 72 h; for cytotoxicity in CRBN-knockout cells (FIG. 5): parental or CRBN-knockout MM.1S cells, 24 h, 0.1-10 μM, MTT
Procedure: as §1, §2

[6] = MM.1S cells, 24 h, indicated concentrations

Compound | degradation of STK4 in cereblon-knockout cells (FIG. 8) ([1]; 24 h) | downregulation of STK4 over time (FIG. 3B) ([1]; MM.1S cells, 4-24 h) | downregulation of STK4 in MM.1S cells (FIG. 7) ([1]; MM.1S cells, 24 h) | downregulation of STK4 in MM.1S cells (FIG. 1) [1, 6] | degradation of STK4 in the presence of MLN4924 (FIG. 9) ([1]; MM.1S cells, 24 h) | MM cell growth inhibition (FIG. 10) [2] | potency in inhibiting MM cell growth as compared to lenalidomide (FIG. 15) [2] | cytotoxicity to peripheral blood mononuclear cells (FIG. 13A/13B) [3] | cytotoxicity in acquired lenalidomide-resistant cells (FIG. 12B) [4] | cytotoxicity in CRBN-knockout cells (FIG. 11) [5] | cytotoxicity in CRBN-knockout cells (FIG. 5) [5] | downregulation of STK4 over time (FIG. 3A) ([1]; MM.1S cells, 2.5 μM, 4-24 h) | downregulation of STK4 in MM.1S cells (FIG. 2) ([1]; MM.1S cells, 24 h, 0.15-5 μM, Western blotting) | degradation of STK4 in cereblon-knockout cells (FIG. 4) ([1]; cereblon (CRBN)-knockout vs parental MM.1S cells, 24 h, indicated concentrations)
Nc1ncc(-c2ccc(S(=O)(=O)Nc3cccc(NC(=O)CCOCCOCCOCCOCCOCCNc4cccc5c4C(=O)N(C4CCC(=O)NC4=O)C5=O)c3)cc2F)cc1-c1ccc2c(c1)CCNC2=O (centres unmarked) [Compound I-10] | absence of degradation of STK4 | downregulation of STK4 by compounds of the application in a time-dependent fashion | dose dependent downregulation of STK4 | dose dependent downregulation of STK4 | absence of degradation of STK4 | potent MM cell growth inhibition | greater potency | absence of cytotoxic | decrease in cytotoxicity | decrease in cytotoxicity | decrease in cytotoxicity |  |  | 
Nc1ncc(-c2ccc(S(=O)(=O)Nc3ccc(NC(=O)CCOCCOCCOCCOCCOCCNc4cccc5c4C(=O)N(C4CCC(=O)NC4=O)C5=O)cc3)cc2F)cc1-c1ccc2c(c1)CCNC2=O (centres unmarked) [Compound I-7, N-(4-((4-(6-amino-5-(1-oxo-1,2,3,4-tetrahydroisoquinolin-6-yl)pyridin-3-yl)-3-fluorophenyl)sulfonamido)phenyl)-1-((2-(2,6-dioxopiperidin-3-yl)-1,3-dioxoisoindolin-4-yl)amino)-3,6,9,12,15-pentaoxaoctadecan-18-amide] | absence of degradation of STK4 |  | dose dependent downregulation of STK4 |  | absence of degradation of STK4 | potent MM cell growth inhibition | greater potency | absence of cytotoxic | decrease in cytotoxicity | decrease in cytotoxicity |  |  |  | 
Nc1ncc(-c2ccc(S(=O)(=O)Nc3cccc(NC(=O)CCOCCOCCOCCOCCOCCOc4cccc5c4C(=O)N(C4CCC(=O)NC4=O)C5=O)c3)cc2F)cc1-c1ccc2c(c1)CCNC2=O (centres unmarked) [Compound I-17] |  | downregulation of STK4 by compounds of the application in a time-dependent fashion |  |  |  |  |  |  |  |  |  |  |  | 
Nc1ncc(-c2ccc(S(=O)(=O)NC3CCCN(C(=O)CCOCCOCCOCCOCCOCCNc4cccc5c4C(=O)N(C4CCC(=O)NC4=O)C5=O)C3)cc2F)cc1-c1ccc2c(c1)CCNC2=O (centres unmarked) [Compound I-20, 4-(6-amino-5-(1-oxo-1,2,3,4-tetrahydroisoquinolin-1-yl)pyridin-3-yl)-N-(1-(1-((2-(2,6-dioxopiperidin-3-yl)-1,3-dioxoisoindolin-4-yl)amino)-3,6,9,12,15-pentaoxaoctadecan-18-oyl)piperidin-3-yl)-3-fluorobenzenesulfonamide] |  |  |  | dose dependent downregulation of STK4 |  |  |  |  |  |  |  |  |  | 
Nc1ncc(-c2ccc(S(=O)(=O)N(CCCNC(=O)CCOCCOCCOCCOCCOCCNc3cccc4c3C(=O)N(C3CCC(=O)NC3=O)C4=O)C3CC3)cc2F)cc1-c1ccc2c(c1)CCNC2=O (centres unmarked) [Compound I-19, N-(3-((4-(6-amino-5-(1-oxo-1,2,3,4-tetrahydroisoquinolin-6-yl)pyridin-3-yl)-N-cyclopropyl-3-fluorophenyl)sulfonamido)propyl)-1-((2-(2,6-dioxopiperidin-3-yl)-1,3-dioxoisoindolin-4-yl)amino)-3,6,9,12,15-pentaoxaoctadecan-18-amide] |  |  |  | dose dependent downregulation of STK4 |  |  |  |  |  |  | decrease in cytotoxicity | downregulation of STK4 by compounds of the application in a time-dependent fashion | dose dependent downregulation of STK4 | absence of degradation of STK4
